Laboratory results reported in patent US4396550A, “Dibenz [b,e] oxepin derivatives” (Kyowa Hakko Kogyo Co., Ltd., priority 1980, dated 1983).

Columns and labels:
[1] = system: male dd-strain rats; test: Acute toxicity test (minimum lethal dose); assay type: in vivo; conditions: mortality for 7 days
Protocol: Groups of male dd-strain rats (each group consisting of five rats) weighing 20±1 g were used. The compounds of the present invention were administered orally (po: 0.3 mg/g) or intraperitoneally (ip: 0.1 mg/g). The MLD (minimum lethal dose) was calculated from the mortality for 7 days after the administration to obtain the results given in Table 1.

[2] = system: isolated ileum of guinea-pig; test: Test for antihistaminergic effects on the isolated ileum of guinea-pig (histamine contraction, in vitro); set-up: species or system guinea-pig (male Hartly-strain); conditions: Cavia porcellus, 0.05 h; depressing ratio of 80% or more of histamine contraction; read-out: Antihistaminergic activity: MED
Protocol: (§1) Male Hartly-strain guinea-pigs weighing about 250 g are killed and the abdomen is opened. The part (2-3 cm in length) of the ileum 10 cm away from the caecum to the pylorus is cut off as a preparation. The preparation is suspended with serre-fine in a Magnus bath containing 10 ml of Tyrode's solution at 32±1° C. under an air bubble. The contraction of the ileum is recorded on Kymograph through hebel when 0.1 ml of acetylcholine at a concentration of 10^-3 g/ml is added to the Tyrode's solution.
(§2) On the other hand, 3 minutes after administration of the test compounds, the same procedure as mentioned above is carried out to record the contraction.
In this test, 0.1 ml of histamine at a concentration of 5×10^-3 g/l is used.

[3] = system: isolated ileum of guinea-pig; test: Test for anticholinergic effects on the isolated ileum of guinea-pig (acetylcholine contraction, in vitro); set-up: species or system guinea-pig (male Hartly-strain); conditions: Cavia porcellus, 0.05 h; depressing ratio of 80% or more of acetylcholine contraction; compound 3 minutes before; read-out: Anticholinergic activity: MED (minimum effective dose)
Protocol: as §1, §2

[4] = system: blood platelets (platelet-rich plasma); test: Test for the inhibition of platelet aggregation (collagen-induced, platelet-rich plasma); assay type: cell-based, male white rabbits; conditions: Oryctolagus cuniculus, Platelet, 0.05 h; depressing ratio of 50% of collagen-induced aggregation; compound 3 minutes before; read-out: Antiplatelet aggregation activity: MED
Protocol: In this test, 9 vols. of blood are sampled from the caroted artery of male white rabbits weighing 2 to 2.5 kg and placed in a silicon-coated flask containing 1 vol. of 3.8% sodium citrate. The thus obtained blood is centrifuged at 1,000 rpm for 15 minutes to obtain platelet-rich plasma. The aggregation of the blood platelets is observed using an aggregometer, when collagen is added to the platelet-rich plasma to the extent of the final concentration that 50% of platelet aggregation is caused in the presence of 100 γ/ml of aspirin. On the other hand, 3 minutes after administration of the test compounds to the platelet-rich plasma, the same procedure as mentioned above is carried out to observe the aggregation of blood platelet. The test compounds showing a depressing ratio of 50%, compared with the inhibition of aggregation by collagen alone, are concluded to have antiplatelet aggregation activity.

Row | Compound | Acute toxicity: MLD (minimum lethal dose) ([1]; ip) | Acute toxicity: MLD (minimum lethal dose) ([1]; po) | minimal effective concentration [2] | minimal effective concentration [3] | minimal effective concentration [4]
1 | CCN(CC)CCCNC1c2ccccc2COc2c(C)cccc21 (centres unmarked) [Compound 6, 4-methyl-11-{3-(diethylamino)propyl}amino-6,11-dihydrodibenz[b,e]oxepin] | 100 mg/kg | 300 mg/kg | 10 µg/mL | 3 µg/mL | 20 µg/mL
2 | CCc1ccc2c(c1)C(NCCN1CCNCC1)c1ccccc1CO2 (centres unmarked) [Compound 26, 2-ethyl-11-{2-(1-piperazinyl)ethyl}amino-6,11-dihydrodibenz[b,e]oxepin] | > 100 mg/kg | > 300 mg/kg | 3 µg/mL | 3 µg/mL | 5 µg/mL
3 | CCN(CC)CCCNC1c2ccccc2COc2ccc(Cl)cc21 (centres unmarked) [Compound 5, 2-chloro-11-{3-(diethylamino)propyl}amino-6,11-dihydrodibenz[b,e]oxepin] | > 100 mg/kg | 300 mg/kg | 1 µg/mL | 1 µg/mL | 20 µg/mL
4 | Cc1cccc2c1OCc1ccccc1C2N1CCN(CCO)CC1 (centres unmarked) [Compound 41, 4-methyl-11-{4-(2-hydroxyethyl)-1-piperazinyl}-6,11-dihydrodibenz[b,e]oxepin] | > 100 mg/kg | > 300 mg/kg | – | – | 100 µg/mL
5 | Fc1ccc(C(NC2c3ccccc3COc3ccc(F)cc32)c2ccc(F)cc2)cc1 (centres unmarked) [Compound 31, 2-fluoro-11-{bis-(4-fluorophenyl)methyl}amino-6,11-dihydrodibenz[b,e]oxepin] | > 100 mg/kg | > 300 mg/kg | – | – | 100 µg/mL
6 | Fc1ccc2c(c1)C(NCCN(Cc1ccccc1)Cc1ccccc1)c1ccccc1CO2 (centres unmarked) [Compound 34, 2-fluoro-11-{2-(dibenzylamino)ethyl}amino-6,11-dihydrodibenz[b,e]oxepin] | > 100 mg/kg | 300 mg/kg | 10 µg/mL | – | –
7 | OCCN1CCN(C2c3ccccc3COc3c(-c4ccccc4)cccc32)CC1 (centres unmarked) [Compound 42, 4-phenyl-11-{4-(2-hydroxyethyl)-1-piperazinyl}-6,11-dihydrodibenz[b,e]oxepin] | > 100 mg/kg | > 300 mg/kg | – | – | 100 µg/mL
8 | CCN1CCCC(NC2c3ccccc3COc3ccc(C)cc32)C1 (centres unmarked) [Compound 27, 2-methyl-11-(1-ethyl-3-piperidyl)amino-6,11-dihydrodibenz[b,e]oxepin] | > 100 mg/kg | 300 mg/kg | 10 µg/mL | 1 µg/mL | 100 µg/mL
9 | Cc1ccc2c(c1)C(NN1CCN(C)CC1)c1ccccc1CO2 (centres unmarked) [Compound 29, 2-methyl-11-(4-methyl-1-piperazinyl)amino-6,11-dihydrodibenz[b,e]oxepin] | > 100 mg/kg | > 300 mg/kg | 10 µg/mL | – | 50 µg/mL
10 | Cc1ccc2c(c1)C(NCCN1CCNCC1)c1ccccc1CO2 (centres unmarked) [Compound 25, 2-methyl-11-{2-(1-piperazinyl)ethyl}amino-6,11-dihydrodibenz[b,e]oxepin] | > 100 mg/kg | > 300 mg/kg | 10 µg/mL | 10 µg/mL | 20 µg/mL
11 | Fc1ccc2c(c1)C(NCCOC(c1ccccc1)c1ccccc1)c1ccccc1CO2 (centres unmarked) [Compound 33, 2-fluoro-11-{2-(diphenylmethyloxy)ethyl}amino-6,11-dihydrodibenz[b,e]oxepin] | > 100 mg/kg | > 300 mg/kg | – | – | 100 µg/mL
12 | Fc1ccc(C(c2ccc(F)cc2)N2CCN(C3c4ccccc4COc4ccc(F)cc43)CC2)cc1 (centres unmarked) [Compound 43, 2-fluoro-11-[4-{bis-(4-fluorophenyl)}methyl-1-piperazinyl]-6,11-dihydrodibenz[b,e]oxepin] | > 100 mg/kg | > 300 mg/kg | – | – | 100 µg/mL
13 | CC(CCc1ccccc1)NC1c2ccccc2COc2ccc(F)cc21 (centres unmarked) [Compound 32, 2-fluoro-11-{(1-methyl-3-phenyl)propyl}amino-6,11-dihydrodibenz[b,e]oxepin] | > 100 mg/kg | > 300 mg/kg | – | 3 µg/mL | –
14 | Fc1ccc2c(c1)C(NCC1COc3ccccc3O1)c1ccccc1CO2 (centres unmarked) [Compound 30, 2-fluoro-11-{(1,4-benzodioxane-2-)methyl}amino-6,11-dihydrodibenz[b,e]oxepin] | > 100 mg/kg | > 300 mg/kg | 10 µg/mL | 10 µg/mL | –
15 | COc1ccc(CCNC2c3ccccc3COc3ccc(F)cc32)cc1OC (centres unmarked) [Compound 60, 2-fluoro-11-{2-(3,4-dimethoxyphenyl)ethyl}amino-6,11-dihydrodibenz[b,e]oxepin] | > 100 mg/kg | > 300 mg/kg | 10 µg/mL | – | –
16 | NCCN1CCN(C2c3ccccc3COc3ccc(F)cc32)CC1 (centres unmarked) [Compound 46, 2-fluoro-11-{4-(2-aminoethyl)-1-piperazinyl}-6,11-dihydrodibenz[b,e]oxepin] | > 100 mg/kg | > 300 mg/kg | 1 µg/mL | – | 50 µg/mL
17 | Cc1ccc2c(c1)C(N1CCN(CCN)CC1)c1ccccc1CO2 (centres unmarked) [Compound 44, 2-methyl-11-{4-(2-aminoethyl)-1-piperazinyl}-6,11-dihydrodibenz[b,e]oxepin] | 100 mg/kg | > 300 mg/kg | 10 µg/mL | 10 µg/mL | –
18 | Cc1ccc2c(c1)C(N1CCC3(CC1)OCCO3)c1ccccc1CO2 (centres unmarked) [Compound 65, 2-methyl-11-(1',3'-dioxoran-2-'spiro-4-piperidino)-6,11-dihydrodibenz[b,e]oxepin] | > 100 mg/kg | > 300 mg/kg | 10 µg/mL | – | –
19 | c1ccc2c(c1)COc1ccc(C3CCCCC3)cc1C2NC1CN2CCC1CC2 (centres unmarked) [Compound 54, 2-cyclohexyl-11-(3-quinuclidinyl)amino-6,11-dihydrodibenz[b,e]oxepin] | 100 mg/kg | > 300 mg/kg | 1 µg/mL | 10 µg/mL | –
20 | Cc1ccc2c(c1)C(Nc1ccc3[nH]ccc3c1)c1ccccc1CO2 (centres unmarked) [Compound 62, 2-methyl-11-(5-indolyl)amino-6,11-dihydrodibenz[b,e]oxepin] | > 100 mg/kg | > 300 mg/kg | – | – | 50 µg/mL
21 | CCN(CC)CCCNC1c2ccccc2COc2ccc(OC)cc21 (centres unmarked) [Compound 7, 2-methoxy-11-{3-(diethylamino)propyl}amino-6,11-dihydrodibenz[b,e]oxepin] | 100 mg/kg | > 300 mg/kg | 0.3 µg/mL | 0.3 µg/mL | –
22 | CCN(CCN(C)C)C1c2ccccc2COc2ccc(C)cc21 (centres unmarked) [Compound 64, 2-methyl-11-[N-{2-(dimethylamino)ethyl}-N-ethyl]amino-6,11-dihydrodibenz[b,e]oxepin] | > 100 mg/kg | > 300 mg/kg | 10 µg/mL | 10 µg/mL | –
23 | CCc1ccc2c(c1)C(Nc1cccc3ncccc13)c1ccccc1CO2 (centres unmarked) [Compound 61, 2-ethyl-11-(5-quinolyl)amino-6,11-dihydrodibenz[b,e]oxepin] | > 100 mg/kg | > 300 mg/kg | 10 µg/mL | – | –
24 | CCN(CC)CCNC1c2ccccc2COc2c(C)cccc21 (centres unmarked) [Compound 12, 4-methyl-11-{2-(diethylamino)ethyl}amino-6,11-dihydrodibenz[b,e]oxepin] | 100 mg/kg | > 300 mg/kg | – | – | 10 µg/mL
